Source: patent EP0168733A2, “Process for the preparation of quinolinone and naphthyridoncarboxylic acids” (BAYER AG, priority 1984, dated 1986)
In brackets after ≈: the same amount, converted by molar mass.

Columns and labels:
Assay in all cases: Agar dilution test (Isosensitest medium / Denley multipoint inoculator), MIC
Assay type in all cases: cell-based
Proteus morg. 932 = conditions: read-out: Minimale Hemmkonzentration
Description: (§1) In der nachstehenden Tabelle sind die MHK-Werte einiger der erfindungsgemäßen Verbindungen angegeben.

Klebsiella pneum. 8085 = conditions: read-out: Minimale Hemmkonzentration
Description: as §1

Proteus vulg. 1017 = conditions: read-out: Minimale Hemmkonzentration
Description: as §1

Staphylococcus aur. 133 = conditions: read-out: Minimale Hemmkonzentration
Description: as §1

Klebsiella pneum. 63 = conditions: read-out: Minimale Hemmkonzentration
Description: as §1

E. coli Neum. = conditions: Escherichia coli, read-out: Minimale Hemmkonzentration
Description: as §1

E. coli T 7 = conditions: Escherichia coli, T7, read-out: Minimale Hemmkonzentration
Description: as §1

Compound | MIC (Proteus morg. 932) [µg/mL] | MIC (Klebsiella pneum. 8085) [µg/mL] | MIC (Proteus vulg. 1017) [µg/mL] | MIC (Staphylococcus aur. 133) [µg/mL] | MIC (Klebsiella pneum. 63) [µg/mL] | MIC (E. coli Neum.) [µg/mL] | MIC (E. coli T 7) [µg/mL]
O=C(O)c1cn(C2CC2)c2cc([N+](=O)[O-])ccc2c1=O [Beispiel 7, 1-Cyclopropyl-7-nitro-1,4-dihydro-4-oxo-3-chinolincarbonsäure] | 0.25 (≈ 0.912 µM) | 0.06 (≈ 0.219 µM) | 0.25 (≈ 0.912 µM) | 32 (≈ 117 µM) | 0.5 (≈ 1.82 µM) |  | 
O=C(O)c1cn(C2CC2)c2cccc([N+](=O)[O-])c2c1=O [Beispiel 6, 1-Cyclopropyl-5-nitro-1,4-dihydro-4-oxo-3-chinolincarbonsäure] | 64 (≈ 233 µM) | 128 (≈ 467 µM) | 64 (≈ 233 µM) | > 128 | 128 (≈ 467 µM) | 32 (≈ 117 µM) | 32 (≈ 117 µM)
CN(C)n1cc(C(=O)O)c(=O)c2ccccc21 [Beispiel 4, 1-Dimethylamino-1,4-dihydro-4-oxo-3-chinolincarbonsäure] | 128 (≈ 551 µM) | 64 (≈ 276 µM) | 128 (≈ 551 µM) | > 128 | > 128 | 32 (≈ 138 µM) | 64 (≈ 276 µM)
O=C(O)c1cn(C2CC2)c2cc([N+](=O)[O-])c(Cl)cc2c1=O [Beispiel 1, 6-Chlor-1-cyclopropyl-7-nitro-1,4-dihydro-4-oxo-3-chinolincarbonsäure] | > 128 | 32 (≈ 104 µM) | > 128 | > 128 | > 128 | 32 (≈ 104 µM) | 64 (≈ 207 µM)
